Laboratory results published in US8871794B2, “Small-molecule agonists for type-2 orexin receptor” (Board of Regents, The University of Texas System, priority 2008, dated 2014).

Tests used:
No Receptor_CRE = assay: CRE reporter assay, no receptor control; assay type: cell-based
OX1R = target: T1, OX1R (Homo sapiens, UniProt O43613); assay: Intracellular Calcium Transient Assay in OX1R-expressing CHO cells; assay type: cell-based
T1 construct: Open reading frames of OX1R, OX2R and GRP (control) receptor were inserted into a bicistronic retrovirus expression vector; expressed in transfected cells; host or cells: CHO cells harboring ecotropic retroviral receptor, infected with retrovirus and selected with puromycin
T1 sequence (O43613 1-425): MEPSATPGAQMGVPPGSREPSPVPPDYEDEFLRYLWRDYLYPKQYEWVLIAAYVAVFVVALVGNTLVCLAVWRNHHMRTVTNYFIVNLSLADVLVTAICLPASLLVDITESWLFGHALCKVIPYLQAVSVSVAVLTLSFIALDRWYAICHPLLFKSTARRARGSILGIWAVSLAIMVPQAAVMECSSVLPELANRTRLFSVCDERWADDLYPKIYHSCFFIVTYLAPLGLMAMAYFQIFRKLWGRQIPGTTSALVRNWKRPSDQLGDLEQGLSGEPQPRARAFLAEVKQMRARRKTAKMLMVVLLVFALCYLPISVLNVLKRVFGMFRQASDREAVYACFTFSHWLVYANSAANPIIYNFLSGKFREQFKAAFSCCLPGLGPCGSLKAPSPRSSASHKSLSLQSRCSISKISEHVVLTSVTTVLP
Description: DNA Construction: Open reading frames of OX1R, OX2R and GRP (control) receptor were inserted into a bicistronic retrovirus expression vector, pMXs-IRES-puror (pMXs-IP), which carried a FLAG™ epitope cDNA sequence at the beginning of the ORF sequences encoding their human polypeptides.
Transfection and retrovirus production: Transfection was carried out using FuGENE 6 (Roche Diagnostics Corp.) according to the manufacturer's recommendations. Retroviruse fluid was harvested after 48 hours post transfection.
Cell lines: To generate receptor expressing cells, CHO cells harboring ecotropic retroviral receptor were infected with a retroviral supernatant. After 24 hours post infection, the retrovirus supernatant was removed and infected cells were selected with 10 μg/ml of puromycin (Sigma-Aldrich, St. Louis, Mo.). […]
0.5 ml aliquot of the cell suspension was stimulated by addition of 5 μl of compound dissolved in DMSO. Changes of [Ca^2+]i transients in cells were measured at RT by using CAF-110 Intracellular Ion Analyser (JASCO, Tokyo) with the excitation wave lengths of 340 nm and 380 nm and emission wavelength of 500 nm

[1] = IV pharmacokinetics in C57BL/6 mice (plasma and brain); assay type: in vivo, mouse; conditions: for Kp: brain/plasma, 10 mg/kg; for half-life: read-out: Terminal half life
Description: (§1) Pharmacokinetics: Methods: Chembridge Compound 6037874 (“Yan7874”) was provided as a powdered stock and dissolved in DMSO at 50 mg/ml. The compound was formulated as 5% DMSO/5% Cremaphor EL/90% 5% dextrose, pH 7.2 such that compound could be administered to mice at 10-20 mg/kg in a volume of 0.2 ml by IV bolus.
The mice were sacrificed in groups of three by inhalation overdose of CO2 and blood and brain obtained. Plasma was subsequently isolated from the […] by centrifugation in a refrigerated microcentrifuge at 10,000 rpm for 10′. The brain was washed extensively with PBS, blotted dry, weighed, and snap frozen in liquid nitrogen.
(§2) An analytical method was developed to detect Yan7874 using LC/MS/MS.
(§3) A standard curve was developed in plasma in the following manner. 100 μl of plasma is spiked with varying concentrations of Yan7874. The plasma is allowed to sit 10′ at room temperature after vortexing. 200 μl of acetonitrile is added to precipitate plasma proteins and release bound drug. After vortexing, the sample is incubated 10′ at room temperature. 700 μl of PBS is added and the sample is centrifuged at 14,000 rpm in a standard microcentrifuge for 5′. 900 μl of supernatant is added to 1 ml of PBS. The entire sample is passed over a Waters OASIS HLB solid phased extraction column already primed by addition of 2 ml methanol and 2 ml H2O. The column is washed once with 2 ml of 5% methanol/2% NH4OH in H2O and once with 2 ml of 5% methanol/2% acetic acid in H2O and compound is eluted by addition of 2 ml of methanol containing 2% NH4OH. 500 μl of this is added to 500 μl of H2O containing 0.2% formic acid (final formic acid 0.1%). Samples are prepared in the same manner without addition of spiked compound. Brain tissue is prepared by homogenizing in 3× volume of PBS (weight in grams×3=volume in ml to add). 100 μl of blank brain lysate is used for preparation of standard curve samples while 100 μl of sample brain lysate is used for preparation of samples. To calculate brain levels, the concentration in ng/ml calculated from the standard curve is multiplied by the total volume of lysate (a value in ml estimated from the 3× volume of PBS added +1× volume to account for brain tissue itself) and then divided by the weight of the brain in grams. A value of 3× above the signal obtained from blank plasma or brain lysate is designated the limit of detection (LOD). The LOD for plasma is 2640 and for brain 459. The limit of quantitation (LOQ) is the lowest concentration at which back calculation yields a concentration within 20% of theoretical. The LOQ for both plasma and brain is 5 ng/ml. In general back calculation of points on both curves yielded values within 20% of theoretical over 4 orders of magnitude (10,000 to 5 ng/ml) for both sample types.

[2] = IP pharmacokinetics in C57BL/6 mice (plasma and brain); assay type: in vivo, mouse; conditions: for AUC / Clearance / Kp / Cmax / half-life: IP 20 mg/kg; for Kp: brain/plasma, ip, 20 mg/kg; for half-life: read-out: Terminal half life
Description: as §1
A second experiment was conducted using 24 C57BL/6 mice (NCI, male, 6 weeks of age). These mice were weighed and injected with 20 mg/kg of compound formulated as described above IP in 0.2 ml. […] The mice were sacrificed as above in groups of three by inhalation overdose of CO2 and blood and brain obtained and processed as above.
as §2, §3

[3] = male, C57BL/6, mouse, IV 10 mg/kg, brain
[4] = male, C57BL/6, mouse, IV 10 mg/kg, plasma

Cc1ccc(Cn2c(=N)n(CC(O)c3ccc(Cl)c(Cl)c3)c3ccccc32)cc1 (stereo not drawn) [Compound 130699]
Fold Induction, No Receptor_CRE (No Receptor_CRE): 0.797 | Ca2+ response (OX1R): weaker response | acute reaction after injection ([1]; 10 mg/kg IV): no acute reactions were noted | time after dosing at which peak brain levels achieved ([1]; 10 mg/kg iv): 30 min | peak levels in brain tissue ([1]; 10 mg/kg iv, 30 minutes after dosing): ~2.5 µg/g | brain penetration ([1]; 10 mg/kg iv, mice): good brain penetration | acute reaction after injection ([1]; 20 mg/kg IV, first two mice): relatively severe reaction marked by a mild seizure and reduced activity for several hours | AUC ([1]; IV 10 mg/kg, brain): 485,627 min*ng/g | Clearance ([1]; IV 10 mg/kg, brain): 0.4 g/min | Kp ([1]; male, C57BL/6, mouse, intravenous, 10 mg/kg iv, read-out: peak brain concentrations relative to peak levels in plasma): ~5 | Kp ([1]; male, C57BL/6, mouse, iv, IV 10 mg/kg, read-out: Blood Brain Penetration Ratio: AUC brain/AUC plasma): 5.2 | Kp ([1]; male, C57BL/6, mouse, iv, IV 10 mg/kg, read-out: Blood Brain Penetration Ratio: Cmax brain/Cmax plasma): 4.8 | concentration at 24 h ([1]; male, C57BL/6, mouse, brain, 10 mg/kg iv, 24 hours, read-out: brain levels persisting at 24 hours post-injection): 5 ng/g | Cmax [1, 3]: 2480 ng/g | half-life [1, 3]: 3.12 h | Cmax [1, 4]: 512 ng/mL | AUC ([1]; male, C57BL/6, mouse, IV 10 mg/kg, plasma, read-out: AUC (area under the concentration-time curve) (converted)): 1530 ng·h/mL | Clearance ([1]; male, C57BL/6, mouse, IV 10 mg/kg, plasma, read-out: Clearance): 2.1 mL/min | half-life [1, 4]: 1.52 h | acute reaction after injection ([2]; 20 mg/kg IP): no acute reactions were noted | AUC ([2]; brain): 133,194 min*ng/g | Clearance ([2]; brain): 2.9 g/min | Clearance ([2]; plasma): 2.7 mL/min | Kp ([2]; male, C57BL/6, mouse, read-out: Blood Brain Penetration Ratio: AUC brain/AUC plasma): 0.9 | Kp ([2]; male, C57BL/6, mouse, read-out: Blood Brain Penetration Ratio: Cmax brain/Cmax plasma): 0.3 | Cmax ([2]; male, C57BL/6, mouse, brain): 337 ng/g | half-life ([2]; male, C57BL/6, mouse, brain): 3.39 h | Cmax ([2]; male, C57BL/6, mouse, plasma): 1080 ng/mL | AUC ([2]; male, C57BL/6, mouse, plasma, read-out: AUC (converted)): 2400 ng·h/mL | half-life ([2]; male, C57BL/6, mouse, plasma): 2.75 h
